Results as given in patent US20240245703A1, “TOPICAL APPLICATION OF AGENTS TO REDUCE SUN SENSITIVITY AND IMPROVE TOPICAL PHOTODYNAMIC THERAPY” (Wright State University, priority 2021, published 2024).

Key:
UVB-induced MVP release [1] = assay: MVP release in skin and plasma of wild-type and XPA KO mice after UVB or topical agonists; format: in vivo; conditions: WT and XPA KO mice, 5 kJ/m^2 UVB, 500 μM imipramine topical immediately post-UVB, 4 h
Source text: The enzyme aSMase is also known to generate MVP in response to many stressors such as UVB via activation of PAFR. Yet other stimuli such as in response to a phorbol ester (TPA) are independent of the PAFR. Therefore, administration of inhibitors of aSMase may block UVB-MVP release in XPA deficient model, as well as in other situations where MVP release is independent of the PAFR.
Groups of 8-13 wild-type (C57BL/6) and XPA KO mice received no treatment (NT) or 1 KJ/m^2, 2.5 kJ/m^2, or 5 KJ/m^2 of UVB to their dorsal back skin. In some experiments, mice were treated with topical application of the PAFR agonist carbamoyl-PAF (CPAF; 50 μL of 100 μM) or the phorbol ester 12-O-tetradecanoylphorbol-13-acetate (TPA; 50 μL of 100 μM) in 90% ethanol: 10% DMSO vehicle. For the data in FIG. 2, triplicate skin biopsies were obtained and weighed four hours post-treatment, and MVP was measured. […] For the data in FIG. 3, plasma was obtained and MVP was measured four hours post-treatment. […] Data are the mean±S.E. fold change of MVP count. Groups were compared using One-Way ANOVA and Tukey's post-hoc test. Differences in samples were considered significant if the P value was less than 0.05. […]
For the data shown in FIG. 4, triplicate skin biopsies were obtained and MVP was measured. For the data shown in FIG. 5, plasma was obtained and MVP was measured. […]

TNFα and IL-6 mRNA = assay: UVB-induced cytokine mRNA (qRT-PCR) in mouse skin biopsies; format: in vivo; conditions: mice, topical post-UVB, skin biopsies 4 h
PDT-induced MVP release = PDT-induced MVP release in skin and plasma of mice; format: in vivo; conditions: wild-type mice, PDT 20 J/cm^2 blue light, 100 μl of 5 mM topical immediately after, 4 h
Experimental: Next, the role of PAF and aSMase in PDT-induced MVP release was assessed. […] Next, the ability of topical PDT to generate MVP in vivo in mice, and the role of aSMase in this process, was determined. […] Two approaches were used to determine if PDT-induced MVP involved aSMase.
The role of aSMase in PDT-mediated MVP release was evaluated in a murine system. For the data shown in FIG. 18, wild-type mice were treated with either sham, 100 μl of 5 mM IMIP, or 90% polyethylene glycol: 10% DMSO vehicle, or 1 μM TPA (as a positive control for MVP release), or PDT using 20 J/cm^2 blue light. Immediately following PDT, the treated areas were given vehicle or imipramine. At 4 hours post-treatment, the mice were euthanized and MVP were measured from duplicate 6-mm punch biopsies and plasma. The data are mean±SD fold increase in MVP normalized to tissue weight/plasma volume. * Denotes statistically significant (P<0.05) changes from sham; #statistically significant (P<0.05) changes from comparator denoted by line by two-way ANOVA; NS not statistically significant.
To confirm the role of aSMase in PDT-induced MVP generation, PDT effects were evaluated in the absence of aSMase was evaluated in a murine system. For the data shown in FIG. 19, wild-type or aSMase-deficient (Smpd1−/−) mice underwent sham or PDT using 20 J/cm^2 blue light. At 4 hours post-treatment, the mice were euthanized and MVP were measured from duplicate 6-mm punch biopsies and plasma. The data are mean±SD fold increase in MVP normalized to tissue weight/plasma volume. * Denotes statistically significant (P<0.05) changes from sham; NS not statistically significant.

[2] = tested on: PDT-induced immunosuppression; assay: contact hypersensitivity (CHS) to DNFB after PDT, ear thickness; format: in vivo, mice; conditions: wild-type mice
Source text: Five days later the mice underwent sensitization with the neoantigen DNFB. To test for local immunosuppression, DNFB was applied to the PDT-treated area. To test for systemic immunosuppression, the DNFB was applied to back skin at least 2 cm away from the PDT-treated area. Nine days later the mice underwent elicitation reactions to DNFB by application to one ear, with vehicle applied to the other ear. One day later the ear thickness was obtained as a measure of CHS reaction and compared to pre-treatment and vehicle-treated values. Some mice were treated with intraperitoneal CPAF as a positive control for systemic immunosuppression.
For the data shown in FIG. 20, wild-type mice either were injected intraperitoneally with 250 ng CPAF as a positive control for immunosuppression, underwent PDT using 10 J/cm^2 blue light, or received no treatment (SHAM). […] Five days later the mice underwent sensitization with DNFB in PDT-treated (local immunosuppression) or non-PDT-treated skin (systemic immunosuppression). Nine days later the mice underwent elicitation reactions to ears with ear thickness measured at 24 hours. For the data shown in FIG. 21, wild type and aSMase-deficient (Smpd1−/−) mice underwent treatment with CPAF or PDT followed by DNFB sensitization/elicitation reactions as in FIG. 20. The data are mean±SD values. * Denotes statistically significant (P<0.05) changes from sham treatment values using two-way ANOVA.

UVB-induced MVP release [3] = assay: MVP release after localized UVB irradiation of volar forearm of human subjects; format: in vivo; conditions: human photosensitive vs normal subjects, 1 KJ/m^2 UVB, 4% imipramine immediately after, biopsies 4 h
Source text: FIG. 22A compares normal subjects to subjects who have active photosensitivity disorders as denoted by positive screening. […] The individual data points are shown in FIG. 22A with the mean±SE of the groups for the UVB+vehicle for the normal and photosensitive subjects.

aSMase = conditions: cited from earlier work
[4] = hairless mice, effect of propylene glycol; cited from earlier work

In the case of `CN(C)CCCN1c2ccccc2CCc2ccccc21` [Imipramine], the “UVB-induced MVP in plasma” value (UVB-induced MVP release [1]) is reported as “blocked MVP accumulation”, the “UVB-induced MVP in skin” value (UVB-induced MVP release [1]) is reported as “blocked MVP accumulation in skin” and the “UVB-induced IL-6 mRNA” value (TNFα and IL-6 mRNA) is reported as “blocks IL-6 mRNA responses”. For the same molecule, the “UVB-induced TNFα mRNA” value (TNFα and IL-6 mRNA) was “blocks TNFα mRNA responses”, the “PDT-induced MVP release in skin and plasma” value (PDT-induced MVP release) was “blocked MVP release” and the “CPAF-induced systemic immunosuppression (CHS to DNFB)” value ([2]; 250 ng CPAF intraperitoneal, topical imipramine) was “did not affect the immunosuppressive effects of CPAF”. The “PDT-induced local immunosuppression (CHS to DNFB)” value ([2]; PDT 10 J/cm^2, 100 μL of 5% imipramine topical post-PDT, DNFB on PDT-treated skin) was “inhibited both local and systemic immunosuppression”, the “PDT-induced systemic immunosuppression (CHS to DNFB)” value ([2]; PDT 10 J/cm^2, 100 μL of 5% imipramine topical post-PDT, DNFB on non-PDT-treated skin) was “inhibited both local and systemic immunosuppression” and the “UVB-induced MVP release in forearm skin” value (UVB-induced MVP release [3]) was “blocks the increased MVP release selectively in the photosensitive subjects”. The “Residual ASM Activity” value (aSMase; 10 micromolar, PC12 cells, incubation time 0.5 h, % of corresponding control values) was 32.6%, the “residual aSMase activity after treatment” value (aSMase; from Kornhuber et al. 2008) was 30.6% and the “absorption with propylene glycol” value [4] was “enhances absorption”.
